Test systems include OVCAR-5 ovarian; TK-10 renal; MOLT-4 leukemia; SF-268 CNS; A498 renal; RXF 393 renal; RPMI-8226 leukemia; SR leukemia; 786-0 renal; OVCAR-3 ovarian.
What all share (assay): NCI-60 cell line screen, 48 h

Structures are written as SMILES.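 How tested: cells in 96-well plates exposed to compound for 48 hours at five concentrations. GI50 marks 50% less growth. TGI marks complete inhibition of growth.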

`C[C@H](CCC1SC1(C)C)C1CCC2(C)C3=C(CC[C@]12C)[C@@]1(C)CC[C@H](O)C(C)(C)C1CC3` (stereo partly drawn): the TGI with OVCAR-5 ovarian, with TK-10 renal, in the assay on MOLT-4 leukemia, in the assay on SF-268 CNS, with A498 renal and in the assay on RXF 393 renal was above 100 µM each time. Further, the TGI with RPMI-8226 leukemia, in the assay with SR leukemia, in the assay on 786-0 renal and with OVCAR-3 ovarian was above 100 µM each time.

Consider `C/C(N=NS(=O)(=O)c1ccc([N+](=O)[O-])cc1)=C1\C=CC=CN1O`, for which the TGI in the assay with OVCAR-5 ovarian, in the assay with TK-10 renal, with MOLT-4 leukemia, in the assay with SF-268 CNS, in the assay on A498 renal and in the assay with RPMI-8226 leukemia was above 100 µM each time. For the same compound, the TGI in the assay with SR leukemia, with 786-0 renal and in the assay on OVCAR-3 ovarian was above 100 µM in each case.

Consider `C/C(=N\O)c1cccc[n+]1Cc1ccccc1`, for which the TGI with OVCAR-5 ovarian, in the assay with TK-10 renal, in the assay with MOLT-4 leukemia, in the assay with SF-268 CNS, in the assay on A498 renal and in the assay with RXF 393 renal was above 100 µM throughout. For the same compound, the TGI with RPMI-8226 leukemia, in the assay on SR leukemia, with 786-0 renal and in the assay with OVCAR-3 ovarian was above 100 µM in each case.

Turning to `NC(=S)N1N=C2c3ccccc3CC[C@H]2[C@@H]1c1ccc(Cl)cc1`, the TGI in the assay on OVCAR-5 ovarian is above 100 µM; in the assay on TK-10 renal, above 100 µM; with MOLT-4 leukemia it was 89.8 µM; with SF-268 CNS, above 100 µM; in the assay on A498 renal it was above 100 µM; in the assay on RXF 393 renal it was 84.3 µM. Also, the TGI in the assay on RPMI-8226 leukemia, in the assay on SR leukemia, with 786-0 renal and in the assay on OVCAR-3 ovarian was above 100 µM each time.

On to `O=c1[nH]c(=O)n(COCc2ccccc2)cc1Nc1ccc(Br)cc1`, for which the TGI in the assay on OVCAR-5 ovarian, with MOLT-4 leukemia, in the assay on SF-268 CNS, in the assay with A498 renal, in the assay with RXF 393 renal and with RPMI-8226 leukemia was above 100 µM in each case. Moreover, the TGI in the assay with SR leukemia, in the assay on 786-0 renal and with OVCAR-3 ovarian was above 100 µM throughout.

Take `C=C1C(=O)O[C@H]2C[C@@H]1[C@@H](O)[C@H](O)[C@@H](C)CCCC(C)=CCC[C@@]2(C)O`: the TGI with OVCAR-5 ovarian was 51.3 µM; in the assay on TK-10 renal, 30.4 µM; in the assay on MOLT-4 leukemia it was 54.6 µM; in the assay on SF-268 CNS, 73 µM; in the assay on A498 renal, above 100 µM; with RXF 393 renal, 74.1 µM. Besides, the TGI in the assay with RPMI-8226 leukemia is 45.3 µM; with SR leukemia, above 100 µM; with 786-0 renal it was 52 µM; in the assay on OVCAR-3 ovarian, 28.5 µM.

In the case of `NCCN1C(=O)c2ccccc2C1c1ccc(Cl)cc1` (stereo not drawn), the TGI in the assay on OVCAR-5 ovarian, with TK-10 renal, in the assay with MOLT-4 leukemia, in the assay on SF-268 CNS, in the assay on A498 renal and in the assay on RXF 393 renal was above 100 µM each time. In addition, the TGI with RPMI-8226 leukemia, with SR leukemia, with 786-0 renal and in the assay on OVCAR-3 ovarian was above 100 µM in each case.

Take `COc1ccccc1C(=O)NCC1CCCN2CCCCC12` (stereo not drawn): the TGI in the assay with OVCAR-5 ovarian, in the assay on TK-10 renal, in the assay with MOLT-4 leukemia, in the assay with SF-268 CNS, with A498 renal and with RXF 393 renal was above 100 µM throughout. Moreover, the TGI in the assay with RPMI-8226 leukemia, in the assay on SR leukemia, with 786-0 renal and in the assay on OVCAR-3 ovarian was above 100 µM in each case.

For the compound `Cc1cc2nc3c(C#N)c4c(c(-c5ccc(Cl)cc5)n3c2cc1C)CCC4`, the TGI with TK-10 renal is 60.5 µM; in the assay on MOLT-4 leukemia, 57.5 µM; in the assay on SF-268 CNS, 57.9 µM; in the assay with A498 renal, 79.4 µM; in the assay with RXF 393 renal, above 100 µM; with RPMI-8226 leukemia, 74.4 µM. Also, the TGI in the assay with SR leukemia is 45.7 µM; in the assay with 786-0 renal it was 35 µM; with OVCAR-3 ovarian, 40.7 µM.

Regarding `O=C(SCc1cccc2ccccc12)c1ccc(Cl)cc1`, the TGI in the assay with OVCAR-5 ovarian, in the assay on TK-10 renal, in the assay with SF-268 CNS, in the assay on A498 renal, in the assay with RXF 393 renal and in the assay on RPMI-8226 leukemia was above 100 µM throughout. For the same compound, the TGI with SR leukemia, in the assay with 786-0 renal and in the assay with OVCAR-3 ovarian was above 100 µM in each case.

For the compound `Cc1c2c(n(CC(c3ccccc3)c3ccccc3)c1C)NN=C(C#N)S2(=O)=O`, the TGI with OVCAR-5 ovarian, in the assay with TK-10 renal, in the assay on MOLT-4 leukemia, with SF-268 CNS, with A498 renal and in the assay on RPMI-8226 leukemia was above 100 µM throughout. The TGI in the assay on SR leukemia, in the assay on 786-0 renal and in the assay on OVCAR-3 ovarian was above 100 µM throughout.

Take `C#CC(O)/C=C/CCCCCCC#CC/C=C\CC#CCCCCCCCCC(O)C#C` (stereo not drawn): the TGI in the assay with OVCAR-5 ovarian is 27 µM; in the assay on TK-10 renal, 28.2 µM; in the assay with SF-268 CNS, 25.8 µM; in the assay on A498 renal, 28.9 µM; in the assay on RXF 393 renal it was 31.6 µM; in the assay on SR leukemia it was above 22 µM. The TGI came out at 5.01 µM in the assay on 786-0 renal and 24.5 µM in the assay on OVCAR-3 ovarian.

For the compound `C[C@]12CC(c3ccccc3O1)C(C(=O)Nc1nc(C34CC5CC(CC(C5)C3)C4)cs1)C(=O)N2` (stereo partly drawn), the TGI in the assay with OVCAR-5 ovarian, in the assay on MOLT-4 leukemia, in the assay with SF-268 CNS, with A498 renal, in the assay with RXF 393 renal and in the assay on RPMI-8226 leukemia was above 100 µM each time. For the same compound, the TGI in the assay with SR leukemia, with 786-0 renal and in the assay on OVCAR-3 ovarian was above 100 µM each time.

With `COC(=O)C1(SC)C2CCC3C2CCC31` (stereo not drawn), the TGI in the assay on OVCAR-5 ovarian, in the assay with MOLT-4 leukemia, in the assay on SF-268 CNS, in the assay on A498 renal, with RXF 393 renal and in the assay with RPMI-8226 leukemia was above 100 µM throughout. The TGI in the assay on SR leukemia, in the assay on 786-0 renal and with OVCAR-3 ovarian was above 100 µM in each case.

In the case of `CC(C)=CC(=O)c1[nH]c2ccccc2c1CC(=O)NCCc1cncn1C`, the TGI in the assay with OVCAR-5 ovarian is above 100 µM; in the assay on TK-10 renal it was above 100 µM; in the assay on MOLT-4 leukemia it was above 100 µM; in the assay with SF-268 CNS, above 100 µM; in the assay on A498 renal it was 91.9 µM; in the assay on RXF 393 renal, 83.4 µM. Besides, the TGI in the assay with SR leukemia was 68 µM; with 786-0 renal, above 100 µM; with OVCAR-3 ovarian it was above 100 µM.

With `Br[C@@H]1[C@H]2c3nc4ccccc4nc3[C@@H]1C[C@H]2Br`, the TGI in the assay with OVCAR-5 ovarian was above 100 µM; with TK-10 renal, above 100 µM; with MOLT-4 leukemia, above 100 µM; in the assay with SF-268 CNS, above 100 µM; in the assay on A498 renal it was above 100 µM; in the assay on RXF 393 renal it was 94.6 µM. For the same compound, the TGI in the assay with SR leukemia, with 786-0 renal and in the assay with OVCAR-3 ovarian was above 100 µM each time.

For `O=C(O)c1nc2ccc(C(F)(F)F)cc2nc1Nc1ccc(F)cc1`, the TGI in the assay with OVCAR-5 ovarian is 64.3 µM; in the assay on TK-10 renal, above 100 µM; in the assay on MOLT-4 leukemia, 28.9 µM; in the assay with SF-268 CNS, 48.1 µM; with A498 renal, 37.6 µM; in the assay on RXF 393 renal, 31.5 µM. For the same compound, the TGI in the assay on SR leukemia stood at 36.8 µM; in the assay with 786-0 renal it was 54.5 µM; in the assay with OVCAR-3 ovarian it was 60.8 µM.

On to `CCOC(=O)c1c(SC(=O)c2ccc(OC)cc2)n(-c2ccccc2)c(=S)n(-c2ccccc2)c1=O`, for which the TGI in the assay with OVCAR-5 ovarian was above 100 µM; in the assay with TK-10 renal it was above 100 µM; with MOLT-4 leukemia, 64 µM; in the assay on SF-268 CNS it was 43.4 µM; in the assay on A498 renal, above 100 µM; in the assay with RXF 393 renal, above 100 µM. Besides, the TGI in the assay with SR leukemia, in the assay on 786-0 renal and in the assay on OVCAR-3 ovarian was above 100 µM in each case.

As to `Cn1cc(S(=O)(=O)NC(=O)Nc2ccc(Cl)cc2)c(=O)c2ccc(F)cc21`, the TGI in the assay on OVCAR-5 ovarian, in the assay with TK-10 renal, in the assay with MOLT-4 leukemia, with SF-268 CNS, in the assay on A498 renal and in the assay on RXF 393 renal was above 100 µM in each case. Further, the TGI in the assay on RPMI-8226 leukemia, in the assay with SR leukemia and in the assay with 786-0 renal was above 100 µM in each case.

`CCCCCCCCCCCCCC[n+]1ccc(C)cc1`: the GI50 in the assay on OVCAR-5 ovarian was 1.14 µM; with TK-10 renal, 0.627 µM; in the assay on MOLT-4 leukemia, 0.689 µM; in the assay on SF-268 CNS, 0.447 µM; in the assay with A498 renal, 2.93 µM; in the assay with RXF 393 renal it was 1.05 µM. Further, the GI50 with RPMI-8226 leukemia was 0.426 µM; in the assay on SR leukemia, 0.581 µM; with OVCAR-3 ovarian, 0.351 µM. For the same compound, the TGI came to 5.18 µM with OVCAR-5 ovarian; 2.11 µM with TK-10 renal; 2.65 µM in the assay on MOLT-4 leukemia; 1.7 µM in the assay with SF-268 CNS; 12.6 µM in the assay on A498 renal; 2.35 µM in the assay with RXF 393 renal. The values for the TGI in the assay on RPMI-8226 leukemia, with SR leukemia and in the assay on OVCAR-3 ovarian were 2.37 µM, 2.67 µM and 1.28 µM, respectively.

As for `CN(CCc1ccccn1)C(=S)N/N=C(\c1ccccc1)c1ccccn1`, the TGI with OVCAR-5 ovarian came out at 7.88 µM; with TK-10 renal, 3.27 µM; with MOLT-4 leukemia, 7.26 µM; with A498 renal, 0.942 µM; in the assay with RXF 393 renal, 2.83 µM; in the assay with RPMI-8226 leukemia, 2.14 µM. Besides, the TGI with SR leukemia worked out at 15.9 µM; in the assay on 786-0 renal it was 2.68 µM; in the assay on OVCAR-3 ovarian, 10.4 µM.

Source of the values: PubChem BioAssay (NCI).
